From PubChem BioAssay (NCI)
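48-hour exposure; five concentrations; linearly interpolated endpoints. TGI: total growth inhibition.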

Key:
Assay in all cases: NCI anticancer screen, dose series, 48 h
HCT-116 colon = system: HCT-116 colon
HT29 colon = system: HT29 colon
SNB-75 CNS = system: SNB-75 CNS
RPMI-8226 leukemia = system: RPMI-8226 leukemia
T-47D breast = system: T-47D breast
HS 578T breast = system: HS 578T breast
SNB-19 CNS = system: SNB-19 CNS
CAKI-1 renal = system: CAKI-1 renal
OVCAR-5 ovarian = system: OVCAR-5 ovarian
UACC-257 melanoma = system: UACC-257 melanoma
MDA-MB-231 breast = system: MDA-MB-231 breast
SK-OV-3 ovarian = system: SK-OV-3 ovarian
PC-3 prostate = system: PC-3 prostate
MCF7 breast = system: MCF7 breast
MOLT-4 leukemia = system: MOLT-4 leukemia
RXF 393 renal = system: RXF 393 renal
HCT-15 colon = system: HCT-15 colon
SK-MEL-28 melanoma = system: SK-MEL-28 melanoma
OVCAR-8 ovarian = system: OVCAR-8 ovarian
SN12C renal = system: SN12C renal

SMILES	TGI (HCT-116 colon)	TGI (HT29 colon)	TGI (SNB-75 CNS)	TGI (RPMI-8226 leukemia)	TGI (T-47D breast)	TGI (HS 578T breast)	TGI (SNB-19 CNS)	TGI (CAKI-1 renal)	TGI (OVCAR-5 ovarian)	TGI (UACC-257 melanoma)	TGI (MDA-MB-231 breast)	TGI (SK-OV-3 ovarian)	TGI (PC-3 prostate)	TGI (MCF7 breast)	TGI (MOLT-4 leukemia)	TGI (RXF 393 renal)	TGI (HCT-15 colon)	TGI (SK-MEL-28 melanoma)	TGI (OVCAR-8 ovarian)	TGI (SN12C renal)
O=c1[nH]c(=S)[nH]cc1CN1CCOCC1	> 100 µM	> 100 µM	> 100 µM	> 100 µM	> 100 µM	> 100 µM	> 100 µM	> 100 µM	> 100 µM	> 100 µM	> 100 µM	> 100 µM	> 100 µM	> 100 µM	> 100 µM	> 100 µM	> 100 µM	> 100 µM	> 100 µM	> 100 µM
COC1=C(C(c2cc(OC)c(OC)c(OC)c2)c2cc3c(cc2OC)OCO3)C(=O)OC1 (stereo not given)	33.5 µM	51.4 µM	> 64.3 µM	> 100 µM	> 100 µM	> 58.4 µM	> 95.6 µM	> 100 µM	> 100 µM	> 100 µM	> 93.5 µM	> 78.6 µM	> 70.4 µM	> 82.3 µM	> 100 µM	43.6 µM	> 100 µM	87.9 µM	73.9 µM	> 100 µM
CC(NCc1c(O)ccc2c(-c3ccccc3)cc(=O)oc12)C(=O)O (stereo not given)	> 100 µM	> 100 µM	> 100 µM	> 100 µM	> 100 µM	> 100 µM	> 100 µM	> 100 µM	> 100 µM	> 100 µM	> 100 µM	> 100 µM	> 100 µM	> 100 µM	> 100 µM	> 100 µM	> 100 µM	> 100 µM	> 100 µM	> 100 µM
O=C1C2C3C4C1C1C2[C@H](OCc2ccccc2)C3C1[C@H]4OCc1ccccc1 (stereo not given in full)	> 100 µM	32.7 µM	> 100 µM	> 100 µM	> 100 µM	60.4 µM	> 100 µM	> 100 µM	56 µM	> 100 µM	> 100 µM	> 100 µM	> 100 µM	> 100 µM	> 100 µM	> 100 µM	57.9 µM	> 100 µM	> 100 µM	> 100 µM
CC(CN1NC12CCCC2)N1NC12CCCC2 (stereo not given)	> 100 µM	> 100 µM	> 100 µM	> 100 µM	> 100 µM	> 100 µM	> 100 µM	> 100 µM	> 100 µM	> 100 µM	> 100 µM	> 100 µM	> 100 µM	> 100 µM	> 100 µM	> 100 µM	> 100 µM	> 100 µM	> 100 µM	> 100 µM
COc1ccc(/C=C/C(=O)c2cc(OC)cc(OC)c2)cc1	6.67 µM	4.96 µM	8.19 µM	26.1 µM	11.9 µM	15.1 µM	7.3 µM	12.9 µM	18.1 µM	26.9 µM	> 28.3 µM	27.5 µM	20.7 µM	0.952 µM	> 26.6 µM	8.6 µM	7.9 µM	27 µM	18.3 µM	13.5 µM
COc1cc2nc(-c3cccs3)nc(Nc3cccc([N+](=O)[O-])c3)c2cc1OC	32.8 µM	> 100 µM	78.8 µM	98.3 µM	38.6 µM	70.5 µM	33.6 µM	36.8 µM	41.4 µM	44.2 µM	35.9 µM	41.5 µM	37.8 µM	59.1 µM	> 100 µM	74.1 µM	31.8 µM	58 µM	56.8 µM	33.2 µM
C[N+]1(C)C2CC(OC(=O)C(CO)c3ccccc3)CC1C1OC12 (stereo not given)	> 100 µM	> 100 µM	> 100 µM	> 100 µM	> 100 µM	> 100 µM	> 100 µM	> 100 µM	> 100 µM	> 100 µM	> 100 µM	> 100 µM	> 100 µM	> 100 µM	> 100 µM	> 100 µM	> 100 µM	> 100 µM	> 100 µM	> 100 µM
Cc1cn2cc(-c3cccs3)nc2s1	> 100 µM	> 90.1 µM	> 100 µM	> 100 µM	> 100 µM	> 100 µM	> 100 µM	> 100 µM	> 100 µM	> 100 µM	> 100 µM	> 100 µM	> 100 µM	> 100 µM	> 100 µM	> 100 µM	> 100 µM	> 100 µM	> 100 µM	> 100 µM
C=C1c2nc3ccccc3n2C=C(c2ccc(OC)cc2)N1c1ccc(OCCN2CCCCC2)cc1	> 42.4 µM	43.3 µM	> 100 µM	18.1 µM	> 100 µM	> 100 µM	> 100 µM	> 100 µM	> 100 µM	10.8 µM	> 64.7 µM	> 100 µM	> 51.3 µM	> 100 µM	38.6 µM	> 77 µM	> 100 µM	> 100 µM	> 100 µM	> 100 µM
NC(N)=N/N=C/c1c(-c2ccccc2[N+](=O)[O-])nc2sccn12	34.4 µM	81.6 µM	34.2 µM	42.8 µM	59 µM	> 100 µM	77.4 µM	> 100 µM	> 100 µM	35.6 µM	33.4 µM	> 100 µM	71.1 µM	38.1 µM	46 µM	32.4 µM	> 100 µM	> 100 µM	> 100 µM	> 100 µM
Clc1ccc(Cc2nc3ccccc3o2)cc1	> 100 µM	> 100 µM	91.2 µM	> 100 µM	> 100 µM	> 100 µM	> 100 µM	> 100 µM	> 100 µM	> 100 µM	> 100 µM	> 100 µM	> 100 µM	> 100 µM	> 100 µM	97.8 µM	> 100 µM	> 100 µM	> 100 µM	> 100 µM
